Assay results taken from patent US20250092058A1 (priority 2018, published 2025).

Assays:
[1] = system: HepG2; format: cell-based, human
[2] = system: A549; format: cell-based, human
[3] = system: HeLa; format: cell-based, human
[4] = system: HCT116; format: cell-based, human
[5] = system: HT-3; assay: MTT assay HT-3; format: cell-based, human; details: Table 7; HT-3
Experimental: MTT assays. […] Viable cells (2500 cells per well) were plated in each well in 96-well plates. After an overnight incubation, cells were treated with and without relevant drugs alone and in combination, respectively, at various concentrations and incubated for 72 hours. MTT, a colorimetric substrate, was added to a final concentration of 0.4 mg/ml to each well. Cells in 96-well plates were further incubated in a 5% CO2 incubator at 37° C. for 4 hours, and then the medium was aspirated. The MTT metabolic product formazan was solubilized by adding 200 ul of DMSO to each well. Absorbance in the relevant wells was measured at 570 nm using an Ultra Microplate Reader (Bio-Tek Instruments). Each experiment was performed at least in triplicate. IC50/EC50 values were calculated from a series of drug dose ranges for each analyzed compound, using GraphPad Prism 6 (GraphPad Software, Inc., La Jolla, CA).
The inhibition of cell growth and viability in various cancer cell types were tested using MTT assay for references.

[6] = system: Y79; assay: MTT assay Y79; format: cell-based; details: Table 7
Experimental: (§1) MTT assays. […] Each experiment was performed at least in triplicate.

[7] = system: Wer 127; assay: MTT assay Wer 127; format: cell-based; details: Table 7
Experimental: as §1

[8] = system: CRC PDX27454 tumors; details: mouse, in vivo
Experimental: Colorectal cancer (CRC) patient-derived xenograft (PDX) models were used to evaluate their in vivo antitumor activity. […] Treatments were administered weekly for four weeks on days 0, 7, 14 and 21 and tumor volumes and individual body weights were monitored.
Human xenograft tumors used. In this invention disclose, human SW620 (colorectal), HT29 (colorectal) and HT-3 (retinoblastoma) cancer cell line-established xenograft tumors were used. Human tumor cell line-derived xenograft tumors are initially established by subcutaneously injecting 2-5×10^6 cultured cancer cells in a volume of 100-150 p L medium into the flank area of severe combined immunodeficiency (SCID) mice. The derived tumors are then passed a couple of generations in mice by transplanting 30-50 mg non-necrotic tumor mass via a trocar for experiments or maintenance. […] PDX tumors were originally established on severe Combined Immunodeficiency (SCID) mice from pancreatic and colorectal cancer patient tumor tissues obtained from metastatic sites of the disease in the clinic.
Specifically, PDX tumors were originally established on severe Combined Immunodeficiency (SCID) mice from pancreatic and colorectal cancer patient tumor tissues obtained from metastatic sites of the disease in the clinic. […] The vehicle is the same think aqueous suspension without drug. Experimental SCID mice were subcutaneously implanted with 30-40 mg individual PDX tumors (isolated from maintenance mice) at the flank area for PDX27454 of SCID mice. Treatment with vehicle or a drug of 7Q-series (2) was initiated 7-14 days after the transplanted tumors reached 100-200 mm^3 (designated day 0). The animal model of PDX tumors was orally treated weekly for 4 times (one cycle/course, as shown with black arrows) or only one time drug administration.

SMILES | IC50 [1] [µM] | IC50 [2] [µM] | IC50 [3] [µM] | IC50 [4] [µM] | IC50/EC50 [5] [µM] | IC50/EC50 [6] [µM] | IC50/EC50 [7] [µM] | further results
CC[C@@]1(O)C(=O)OCc2c1cc1n(c2=O)Cc2c-1nc1cc3c(cc1c2-c1cc(C)cc(F)c1)OCO3 [Compound 7f] | 0.056 ± 0.0003 | 0.0306 ± 0.0038 | 0.0565 ± 0.0028 | 0.0414 ± 0.0059 |  |  |  | 
CC[C@@]1(O)C(=O)OCc2c1cc1n(c2=O)Cc2c-1nc1cc3c(cc1c2/C=C/C=C/c1ccccc1)OCO3 [FL7s-1] |  |  |  |  | 0.0119 | 0.00416 | >0.5 | 
CC[C@@]1(O)C(=O)OCc2c1cc1n(c2=O)Cc2c-1nc1cc3c(cc1c2-c1cccc(OC(F)(F)F)c1)OCO3 [Compound 71] | 0.0168 ± 0.0023 | 0.0264 ± 0.0075 | 0.0128 ± 0.0074 | 0.0146 ± 0.0067 |  |  |  | antitumor efficacy [8]: no more effective than FL118 in vivo
CC[C@@]1(O)C(=O)OCc2c1cc1n(c2=O)Cc2c-1nc1cc3c(cc1c2CCc1ccc(F)cc1)OCO3 [FL7s-4] |  |  |  |  | 0.0047 | 0.00062 | 0.04946 | 
CC[C@@]1(O)C(=O)OCc2c1cc1n(c2=O)Cc2c-1nc1cc3c(cc1c2-c1cccc(C(F)(F)F)c1)OCO3 [Compound 7Q35] |  |  |  |  |  |  |  | antitumor activity, 7Q-series (2) [8]: much higher antitumor activity than the other compounds in this 7Q-series (2); effect of oral instead of i.p. administration on antitumor efficacy [8]: decreases 7Q35 antitumor efficacy
CC[C@@]1(O)C(=O)OCc2c1cc1n(c2=O)Cc2c-1nc1cc3c(cc1c2-c1ccc(OC(F)(F)F)cc1)OCO3 [Compound 7m] | 0.229 ± 0.0058 | 0.0873 ± 0.0144 | 0.398 ± 0.0026 | 0.196 ± 0.0191 |  |  |  | 
CC[C@@]1(O)C(=O)OCc2c1cc1n(c2=O)Cc2c-1nc1cc3c(cc1c2-c1cc(F)cc(OC)c1)OCO3 [Compound 7i] | 0.0485 ± 0.0023 | 0.0155 ± 0.0022 | 0.124 ± 0.0121 | 0.0669 ± 0.0065 |  |  |  | 
CC[C@@]1(O)C(=O)OCc2c1cc1n(c2=O)Cc2c-1nc1cc3c(cc1c2-c1cccc(F)c1)OCO3 [Compound 7a] | 0.155 ± 0.0351 | 0.04 ± 0.0003 | 0.0347 ± 0.0065 | 0.15 ± 0.0025 |  |  |  | 
CC[C@@]1(O)C(=O)OCc2c1cc1n(c2=O)Cc2c-1nc1cc3c(cc1c2-c1ccc(C)c(F)c1)OCO3 [Compound 7d] | 0.0369 ± 0.0012 | 0.0482 ± 0.0079 | 0.0221 ± 0.0073 | 0.0503 ± 0.0146 |  |  |  | 
CC[C@@]1(O)C(=O)OCc2c1cc1n(c2=O)Cc2c-1nc1cc3c(cc1c2-c1cccc(OC(F)(F)F)c1)OCO3 [Compound 7Q36] |  |  |  |  |  |  |  | antitumor activity, 7Q-series (2) [8]: much higher antitumor activity than the other compounds in this 7Q-series (2); loss of antitumor efficacy on oral administration [8]: > 80%
CC[C@@]1(O)C(=O)OCc2c1cc1n(c2=O)Cc2c-1nc1cc3c(cc1c2-c1ccc(F)c(C)c1)OCO3 [Compound 7e] | 0.0367 ± 0.0026 | 0.0294 ± 0.0041 | 0.0366 ± 0.0045 | 0.0255 ± 0.0032 |  |  |  | 
CC[C@@]1(O)C(=O)OCc2c1cc1n(c2=O)Cc2c-1nc1cc3c(cc1c2-c1cccc(C(F)(F)F)c1)OCO3 [Compound 7k] | 0.035 ± 0.0066 | 0.0829 ± 0.0056 | 0.0202 ± 0.003 | 0.0736 ± 0.0071 |  |  |  | 
CC[C@@]1(O)C(=O)OCc2c1cc1n(c2=O)Cc2c-1nc1cc3c(cc1c2CCc1ccccc1F)OCO3 [FL7s-8] |  |  |  |  | 0.00488 | 0.00156 | 0.02899 | 
CC[C@@]1(O)C(=O)OCc2c1cc1n(c2=O)Cc2c-1nc1cc3c(cc1c2CCCCc1ccccc1)OCO3 [FL7s-5] |  |  |  |  | 0.00358 | 0.00111 | 0.3812 | 
CC[C@@]1(O)C(=O)OCc2c1cc1n(c2=O)Cc2c-1nc1cc3c(cc1c2-c1ccc(OC)c(F)c1)OCO3 [Compound 7g] | 0.172 ± 0.0053 | 0.0702 ± 0.0096 | 0.0243 ± 0.0044 | 0.0432 ± 0.0158 |  |  |  | 
CC[C@@]1(O)C(=O)OCc2c1cc1n(c2=O)Cc2c-1nc1cc3c(cc1c2CCc1ccc(F)c(F)c1)OCO3 [FL7s-9] |  |  |  |  | 0.00342 | 0.001 | 0.00186 | 
CCOc1ccc(-c2c3c(nc4cc5c(cc24)OCO5)-c2cc4c(c(=O)n2C3)COC(=O)[C@]4(O)CC)cc1F [Compound 7j] | 0.206 ± 0.0382 | 0.352 ± 0.0103 | 0.0422 ± 0.0036 | 0.399 ± 0.0198 |  |  |  | 
CC[C@@]1(O)C(=O)OCc2c1cc1n(c2=O)Cc2c-1nc1cc3c(cc1c2CCc1ccccc1)OCO3 [FL7-14, 20 (S)-7-phenethyl-10,11-methylenedioxy-camptothecin] |  |  |  |  | 0.0369 | 0.00839 | 0.0041 | 
CC[C@@]1(O)C(=O)OCc2c1cc1n(c2=O)Cc2c-1nc1cc3c(cc1c2-c1cc(F)cc(F)c1)OCO3 [Compound 7c] | 0.0414 ± 0.0059 | 0.0495 ± 0.01 | 0.0356 ± 0.0058 | 0.048 ± 0.0044 |  |  |  | antitumor efficacy [8]: high antitumor efficacy; mouse body weights ([8]; ip): stable mouse body weights
CCC1(O)C(=O)OCc2c1cc1n(c2=O)Cc2c-1nc1cc3c(cc1c2C=CC=Cc1ccc(OC)cc1)OCO3 (stereo not shown) [FL7s-2] |  |  |  |  | 0.1132 | 0.04148 | >0.5 | 
CC[C@@]1(O)C(=O)OCc2c1cc1n(c2=O)Cc2c-1nc1cc3c(cc1c2CCc1cc(F)c(F)c(F)c1)OCO3 [FL7s-10] |  |  |  |  | 0.00344 | 0.00115 | 0.01226 | 
CC[C@@]1(O)C(=O)OCc2c1cc1n(c2=O)Cc2c-1nc1cc3c(cc1c2-c1ccc(F)c(OC)c1)OCO3 [Compound 7Q32] |  |  |  |  |  |  |  | antitumor activity, 7Q-series (2) [8]: much higher antitumor activity than the other compounds in this 7Q-series (2); toxicity on i.p. versus oral administration [8]: increases 7Q32 toxicity to animals in comparison with oral administration
CC[C@@]1(O)C(=O)OCc2c1cc1n(c2=O)Cc2c-1nc1cc3c(cc1c2CCCCc1ccc(OC)cc1)OCO3 [FL7s-6] |  |  |  |  | 0.0077 | 0.00152 | 0.00648 | 
CC[C@@]1(O)C(=O)OCc2c1cc1n(c2=O)Cc2c-1nc1cc3c(cc1c2-c1ccc(C)c(F)c1)OCO3 [Compound 7Q28] |  |  |  |  |  |  |  | antitumor activity, 7Q-series (2) [8]: much higher antitumor activity than the other compounds in this 7Q-series (2); effect of oral instead of i.p. administration on antitumor efficacy [8]: decreases 7Q28 antitumor efficacy
CC[C@@]1(O)C(=O)OCc2c1cc1n(c2=O)Cc2c-1nc1cc3c(cc1c2-c1ccc(OC)c(F)c1)OCO3 [Compound 7Q31] |  |  |  |  |  |  |  | antitumor activity, 7Q-series (2) [8]: much higher antitumor activity than the other compounds in this 7Q-series (2); effect of oral instead of i.p. administration on antitumor efficacy [8]: decreases 7Q28 antitumor efficacy
CC[C@@]1(O)C(=O)OCc2c1cc1n(c2=O)Cc2c-1nc1cc3c(cc1c2C=Cc1ccccc1)OCO3 [FL7-5, 20 (S)-7-cinnamenyl-10,11-methylenedioxy-camptothecin] |  |  |  |  | 0.00589 | 0.00251 | 0.00513 | 
CC[C@@]1(O)C(=O)OCc2c1cc1n(c2=O)Cc2c-1nc1cc3c(cc1c2-c1ccc(F)c(F)c1)OCO3 [Compound 7n] | 0.0499 ± 0.0035 | 0.009 | 0.0397 ± 0.0023 | 0.0488 ± 0.0032 |  |  |  | 
